The record followed here is patent US11542249B2, “BTK inhibitor compounds” (Eli Lilly and Company, priority 2017, dated 2023).

One experiment addresses human BTK (Homo sapiens (Human), UniProt Q06187). As to the kind of experiment: BTK LANTHASCREEN Eu Kinase Binding Assay. Particulars: IC50 value ± standard deviation; full-length His-labeled BTK, kinase tracer 236; read-out: hBTK Rel IC50. Here is the method:
(§1) BTK and EGFR in Vitro Assays:
(§2) The BTK and EGFR biochemical assays utilize LANTHASCREEN® Eu Kinase Binding Assays from Thermo Fisher Scientific, measuring the binding of the kinase with a […] tracer. The assay buffer consists of 50 mM HEPES pH 7.5, 0.01% BRU™-35, 10 mM MgCl2, 1 mM EGTA, and 1 mM DTT. The test compounds are diluted and added to the assay plate with a Labcyte ECHO® 555 liquid handler. The compounds are tested in 10 point dose response curves (100 μM-0.005 μM) with a maximum DMSO concentration of 1%. The assays are performed in 20 μL in low-volume 384-well white proxiplates. For the BTK assay, the concentration of full-length His-labeled BTK in the assay is 5 nM, the Eu-anti-His antibody is 2 nM, and the kinase tracer 236 is 60 nM. For the EGFR assay, the concentration of truncated (amino acids 668-1210) GST-labeled EGFR is 5 nM, the Eu-anti-GST antibody is 2 nM, and the kinase tracer 199 is 10 nM. The components of the assay (compound, enzyme/antibody, tracer) are assembled and incubated for 30 min prior to being read on a Perkin-Elmer EnVision with excitation at 340 nm, tracer emission at 665 nm, and antibody emission at 615 nm. The signal ratio is converted to percent inhibition using the following equation: % Inhibition=100−[(Test Compound−Median Minimum)/(Median Maximum−Median Minimum)×100].
(§3) The following Table 1 and Table 2 describes the relative IC50 data vs. human BTK, human EGFR, and human whole blood CD69.

For another experiment, the target named is human EGFR (Homo sapiens (Human), UniProt P00533). As to the kind of experiment: EGFR LANTHASCREEN Eu Kinase Binding Assay. Conditions: IC50 value ± standard deviation; truncated GST-labeled EGFR, kinase tracer 199; read-out: hEGFR Rel IC50. The procedure:
as §1, §2
(In general: TR-FRET usually uses a lanthanide donor and a delayed reading to cut background.)

Experiment [1] has as its system activated B cells in human whole blood (CD69). Briefly: Human Whole Blood CD69 in vitro assay (B cell activation, flow cytometry). The experiment is classed as cell-based. Particulars: IC50 value ± standard deviation, anti-human-IgD-Dextran stimulation, read-out: HWB CD69 Rel IC50. The procedure:
Human Whole Blood CD69 in Vitro Assay:
The HWB CD69 assay measures activated B cells in human whole blood using a flow cytometer. Compounds are diluted and added to assay plates with a Labcyte ECHO® 555 liquid handler. Compounds are tested in 10 point dose response curves (20 μM-0.001 μM) in 96-well v-bottom plates with a maximum DMSO concentration of 0.2%. Fresh blood from individual healthy volunteer is mixed with HEPES (0.5 ml HEPES added per 10 ml blood) and 100 μl/well is added to compound plates. The plates are sealed and incubated in a 37° C. incubator for 3 h. Anti-human-IgD-Dextran is added to each well to give a final concentration of 100 ng/ml, mixed, and put back into the incubator. After 1 h, the cells are washed with cold FACS buffer and transferred to a deep well plate. The cells are incubated with anti-human CD69-PE (BIOLEGEND®, clone FN50) and anti-human CD19-APC (BIOLEGEND®, clone HIB19) antibodies on ice for 20 min. The cells are washed and incubated in eBioscience™ 1-step Fix/Lyse solution (10×) at RT to lyse the red blood cells and fix the other cells. The white cells are pelleted and washed in FACS buffer and then brought up in read buffer. The suspended cells are transferred to 96-well round bottom plates and read on an IntelliCyt iQue® Screener Plus flow cytometer. From the SSC (Side Scatter Channel) vs FSC (Forward Scatter Channel) graph, the lymphocytes are identified. Lymphocytes are identified with gated on positive CD19 marker for quantify CD69 (a marker of activated B lymphocytes) MFI (mean fluorescent intensity/cell). The signal ratio is converted to percent inhibition using the following equation: % Inhibition=100−[(Test Compound−Median Min)/(Median Max−Median Min)×100].
as §3
On the technique in general: In flow cytometry, cells or beads pass a laser one at a time.

Sequence of human BTK (Q06187 whole entry): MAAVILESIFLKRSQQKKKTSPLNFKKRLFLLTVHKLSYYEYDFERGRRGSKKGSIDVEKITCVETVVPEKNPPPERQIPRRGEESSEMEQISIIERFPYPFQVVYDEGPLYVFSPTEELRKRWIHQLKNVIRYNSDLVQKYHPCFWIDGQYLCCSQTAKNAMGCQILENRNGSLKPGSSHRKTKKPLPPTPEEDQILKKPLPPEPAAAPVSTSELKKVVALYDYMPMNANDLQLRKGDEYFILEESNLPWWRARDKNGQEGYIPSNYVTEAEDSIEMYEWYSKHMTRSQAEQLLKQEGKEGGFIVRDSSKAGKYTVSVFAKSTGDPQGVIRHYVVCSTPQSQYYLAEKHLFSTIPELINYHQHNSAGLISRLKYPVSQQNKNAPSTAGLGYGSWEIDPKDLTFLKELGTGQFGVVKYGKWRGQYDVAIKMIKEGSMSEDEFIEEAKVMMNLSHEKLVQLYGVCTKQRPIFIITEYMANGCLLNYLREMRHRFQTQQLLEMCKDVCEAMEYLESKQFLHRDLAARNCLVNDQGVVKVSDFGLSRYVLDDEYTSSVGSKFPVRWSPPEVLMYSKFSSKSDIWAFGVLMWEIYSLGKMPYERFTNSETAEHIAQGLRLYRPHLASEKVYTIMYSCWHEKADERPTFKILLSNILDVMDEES
Sequence of human EGFR (P00533 668-1210): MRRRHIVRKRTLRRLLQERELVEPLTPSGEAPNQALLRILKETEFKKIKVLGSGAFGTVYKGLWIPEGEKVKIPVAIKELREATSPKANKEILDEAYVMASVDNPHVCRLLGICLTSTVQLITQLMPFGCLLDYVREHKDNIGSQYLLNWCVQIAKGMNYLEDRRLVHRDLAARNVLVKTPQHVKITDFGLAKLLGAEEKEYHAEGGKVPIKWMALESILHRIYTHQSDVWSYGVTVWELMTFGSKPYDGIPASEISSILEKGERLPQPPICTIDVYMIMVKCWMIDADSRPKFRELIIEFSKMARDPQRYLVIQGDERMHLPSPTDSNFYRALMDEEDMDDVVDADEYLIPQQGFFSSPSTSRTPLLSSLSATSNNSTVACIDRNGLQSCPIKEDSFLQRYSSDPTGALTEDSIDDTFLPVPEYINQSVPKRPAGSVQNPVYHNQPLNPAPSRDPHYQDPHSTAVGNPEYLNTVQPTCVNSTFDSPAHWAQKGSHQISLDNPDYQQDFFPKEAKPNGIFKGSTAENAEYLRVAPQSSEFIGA

As for `C=CC(=O)N1CC(Nc2cncc(-c3cnc(Oc4ccc(F)c(OC(F)F)c4)nc3)c2)C1` [Example 9, 1-[3-[[5-[2-[3-(difluoromethoxy)-4-fluoro-phenoxy]pyrimidin-5-yl]-3-pyridyl]amino]azetidin-1-yl]prop-2-en-1-one], the 50% inhibitory concentration (IC50) – broadly, the concentration that gives 50% inhibition – on human BTK was 0.0606 ± 0.000351 µM; on human EGFR, 3.76 ± 1.4 µM; in experiment [1], 0.655 ± 0.295 µM.

For the compound `C=CC(=O)N1CC(Nc2cncc(-c3cnc(Oc4ccc(F)c(Cl)c4)nc3)c2)C1` [Example 13, 1-[3-[[5-[2-(3-chloro-4-fluoro-phenoxy)pyrimidin-5-yl]-3-pyridyl]amino]azetidin-1-yl]prop-2-en-1-one], the IC50 on human BTK stood at 0.0382 ± 0.0169 µM; at human EGFR, 0.45 ± 0.0532 µM; in experiment [1] it was 0.715 ± 0.0935 µM.

Take `C=CC(=O)N1CC(Nc2cncc(-c3cnc(Nc4ccccc4OC(F)(F)F)nc3)n2)C1` [Example 43, 1-[3-[[6-[2-[2-(trifluoromethoxy)anilino]pyrimidin-5-yl]pyrazin-2-yl]amino]azetidin-1-yl]prop-2-en-1-one]: the IC50 at human BTK is under 0.005 µM; at human EGFR it was 0.676 ± 0.023 µM; in experiment [1] it was 0.105 ± 0.043 µM.

For `C=CC(=O)N1CC(Nc2cncc(-c3cnc(Nc4cccc(OC(F)(F)F)c4)nc3)n2)C1` [Example 37, 1-[3-[[6-[2-[3-(trifluoromethoxy)anilino]pyrimidin-5-yl]pyrazin-2-yl]amino]azetidin-1-yl]prop-2-en-1-one], the IC50 at human BTK is under 0.005 µM; at human EGFR, 0.306 ± 0.0338 µM; in experiment [1], 0.136 ± 0.0668 µM.

Consider `C=CC(=O)N1CC(Nc2cncc(-c3cnc(Oc4cccc(Cl)c4F)nc3)c2)C1` [Example 2, 1-[3-[[5-[2-(3-chloro-2-fluoro-phenoxy)pyrimidin-5-yl]-3-pyridyl]amino]azetidin-1-yl]prop-2-en-1-one], for which the IC50 on human BTK worked out at 0.00689 ± 0.00262 µM; at human EGFR, 0.121 ± 0.0664 µM; in experiment [1], 0.141 ± 0.0413 µM.

Consider `C=CC(=O)N1CC(C)(Nc2cncc(-c3cnc(Oc4cccc(Cl)c4)nc3)c2)C1` [Example 12, 1-[3-[[5-[2-(3-chlorophenoxy)pyrimidin-5-yl]-3-pyridyl]amino]-3-methyl-azetidin-1-yl]prop-2-en-1-one], for which the IC50 at human BTK came to 0.00695 ± 0.000395 µM; on human EGFR it was 0.509 ± 0.246 µM; in experiment [1], 0.2 ± 0.0524 µM.

Consider `C=CC(=O)N1C[C@@H](Nc2cncc(-c3cnc(Oc4cccc(Cl)c4)nc3)n2)[C@@H]1C` (single isomer, unassigned; isomer 1) [Example 32], for which the IC50 was determined as 0.00688 ± 0.00137 µM on human BTK, 0.194 ± 0.0479 µM at human EGFR and 0.135 ± 0.0665 µM in experiment [1].

As for `C=CC(=O)N1CC(Nc2cncc(-c3cnc(Oc4cccc(C(F)(F)F)c4)nc3)c2)C1` [Example 8, 1-[3-[[5-[2-[3-(trifluoromethyl)phenoxy]pyrimidin-5-yl]-3-pyridyl]amino]azetidin-1-yl]prop-2-en-1-one], the IC50 at human BTK amounted to 0.0231 ± 3.41e-05 µM; on human EGFR it was 0.724 ± 0.375 µM; in experiment [1], 0.239 ± 0.0345 µM.

With `C=CC(=O)N1CCC(Nc2cncc(-c3cnc(Nc4cccc(C(F)(F)F)n4)nc3)c2)CC1` [Example 21, 1-[4-[[5-[2-[[6-(trifluoromethyl)-2-pyridyl]amino]pyrimidin-5-yl]-3-pyridyl]amino]-1-piperidyl]prop-2-en-1-one], the IC50 at human BTK is 0.00884 ± 0.00121 µM; on human EGFR it was over 100 µM; in experiment [1] it was 0.16 ± 0.0382 µM.

In the case of `C#Cc1cccc(Oc2ncc(-c3cncc(NC4CN(C(=O)C=C)C4)c3)cn2)c1` [Example 14, 1-[3-[[5-[2-(3-ethynylphenoxy)pyrimidin-5-yl]-3-pyridyl]amino]azetidin-1-yl]prop-2-en-1-one], the IC50 was 0.0178 ± 0.00377 µM on human BTK, 0.242 ± 0.231 µM on human EGFR and 0.299 ± 0.143 µM in experiment [1].

Turning to `C=CC(=O)N1CC(Nc2cncc(-c3cnc(Oc4cc(F)cc(F)c4)nc3)n2)C1` [Example 30, 1-[3-[[6-[2-(3,5-difluorophenoxy)pyrimidin-5-yl]pyrazin-2-yl]amino]azetidin-1-yl]prop-2-en-1-one], the IC50 on human BTK stood at 0.0432 ± 0.0119 µM; on human EGFR, 1.08 ± 0.229 µM; in experiment [1], 0.815 ± 0.11 µM.

Take `C=CC(=O)N1CCC(Nc2cncc(-c3cnc(Nc4cccc(Cl)c4)nc3)c2)CC1C` (stereo not drawn) [Example 47, 1-[4-[[5-[2-(3-chloroanilino)pyrimidin-5-yl]-3-pyridyl]amino]-2-methyl-1-piperidyl]prop-2-en-1-one]: the values for the IC50 (on human BTK; on human EGFR; in experiment [1]) were 0.0067 µM, 6.1 µM and 0.355 ± 0.039 µM, respectively.

Turning to `C=CC(=O)N1CC(Nc2cncc(-c3cnc(Oc4cccc(Cl)c4)nc3)c2)C1` [Example 7, 1-[3-[[5-[2-(3-chlorophenoxy)pyrimidin-5-yl]-3-pyridyl]amino]azetidin-1-yl]prop-2-en-1-one], the IC50 at human BTK amounted to 0.00973 ± 0.00201 µM; at human EGFR it was 0.129 ± 0.0553 µM; in experiment [1] it was 0.18 ± 0.046 µM.

As for `C=CC(=O)N1CC(Nc2cncc(-c3cnc(Oc4cccc(F)c4)nc3)n2)C1` [Example 25, 1-[3-[[6-[2-(3-fluorophenoxy)pyrimidin-5-yl]pyrazin-2-yl]amino]azetidin-1-yl]prop-2-en-1-one], the results for the half-maximal inhibitory concentration (IC50) (on human BTK; at human EGFR; in experiment [1]) were 0.0193 ± 0.00328 µM, 1.58 ± 0.11 µM and 0.306 ± 0.0636 µM, respectively.

Consider `C=CC(=O)N1CC[C@H](Nc2cncc(-c3cnc(Nc4cccc(Cl)c4)nc3)n2)C1` [Example 34, 1-[(3S)-3-[[6-[2-(3-chloroanilino)pyrimidin-5-yl]pyrazin-2-yl]amino]pyrrolidin-1-yl]prop-2-en-1-one], for which the results for the IC50 (at human BTK; on human EGFR; in experiment [1]) were 0.0183 µM, 0.639 ± 0.256 µM and 0.13 ± 0.0447 µM, respectively.

Turning to `C=CC(=O)N1CC(Nc2cncc(-c3cnc(Nc4cccc(C(F)(F)F)c4)nc3)c2)C1` [Example 18, 1-[3-[[5-[2-[3-(trifluoromethyl)anilino]pyrimidin-5-yl]-3-pyridyl]amino]azetidin-1-yl]prop-2-en-1-one], the IC50 at human BTK is under 0.005 µM; on human EGFR, 0.247 ± 0.0993 µM; in experiment [1], 0.071 ± 0.0128 µM.

In the case of `C=CC(=O)N1CC(C)(Nc2cncc(-c3cnc(Oc4cccc(Cl)c4)nc3)n2)C1` [Example 29, 1-[3-[[6-[2-(3-chlorophenoxy)pyrimidin-5-yl]pyrazin-2-yl]amino]-3-methyl-azetidin-1-yl]prop-2-en-1-one], the half-inhibitory concentration (IC50) came out at 0.0177 ± 0.00135 µM on human BTK, 3.47 ± 0.911 µM at human EGFR and 0.584 ± 0.372 µM in experiment [1].

Regarding `C=CC(=O)N1CC(Nc2cncc(-c3cnc(Oc4cccc(OC)c4)nc3)n2)C1` [Example 42, 1-[3-[[6-[2-(3-methoxyphenoxy)pyrimidin-5-yl]pyrazin-2-yl]amino]azetidin-1-yl]prop-2-en-1-one], the IC50 came to 0.0194 ± 0.00167 µM at human BTK, 2.82 ± 0.492 µM on human EGFR and 0.226 ± 0.053 µM in experiment [1].
